Laboratory results taken from patent publication US20230365590A1, “BIPHENYL COMPOUND AS IMMUNOMODULATOR, PREPARATION METHOD THEREFOR AND APPLICATION THEREOF” (SHENZHEN CHIPSCREEN BIOSCIENCES CO., LTD., priority 2020, published 2023).

Target: CD80/PD-L1 binding (recombinant human His-CD80 protein and PD-L1-Fc fusion protein) (Homo sapiens (Human), UniProt Q9NZQ7)
Experiment: In vitro inhibitory activity against CD80/PD-L1 binding (HTRF)
Conditions: read-out: IC50 for inhibiting CD80/PD-L1 binding in vitro
Source text: In addition to PD-1, PD-L1 can also play an immune inhibition role by binding to CD80. Similarly, in vitro CD80/PD-L1 binding or binding inhibition test can also be conducted by homogeneous time-resolved fluorescence (HTRF). When the anti-hFc-Eu^3+ antibody and the anti-His-XL665 antibody are used to bind to the hFC tag fused to PD-L1 and the His tag fused to CD80 respectively, and after excitation with 320 nm laser, energy can be transferred from Eu element to XL665 fluorescein due to the binding of PD-L1 and CD80 to excite the XL665 fluorescein to emit light. When an inhibitor for inhibiting interaction of PD-L1 and CD80 is added, the binding of PD-L1 and CD80 is destroyed, causing a long distance between Eu and XL665. As a result, the energy cannot be transferred, and the XL665 fluorescein will not be excited.
The recombinant human CD80 protein with His tag (His-CD80 protein, Cat #: 10698-H08H-100) and the recombinant human PD-L1-Fc fusion protein (PD-L1-Fc fusion protein, Cat #: 10084-H02H-100) were purchased from Sino Biological Inc., anti-hFc-Eu^3+ antibody and anti-His-XL665 antibody were purchased from Cisbio, and other related reagents such as a diluent buffer (Diluent buffer 5 (Cat #: 62DL5DDC) and a detection buffer (PPI-European detection buffer, Cat #: 61DB9RDF) were purchased from Cisbio. Fluorescence detector Tecan (Spark 10M) was purchased from Tecan Company in Switzerland.
The experiment process was carried out according to the flow required in the operating manual of the test reagent (Invitrogen). The process was as follows: • (1) Experiment preparation: A test compound was diluted to different concentration gradients with the dilution buffer (the highest final concentration in a 20 μL final reaction system was 10 μM). The His-CD80 protein was diluted to 800 nM (the final concentration in the 20 final reaction system was 100 nM). The PD-L1-Fc fusion protein was diluted to 16 nM (the final concentration was 2 nM). The anti-His-XL665 antibody and the anti-hFc-Eu^3+antibody were diluted 20 times and 100 times respectively with the detection buffer according to reagent requirements. • (2) First, 5 μL of the test compound, 2.5 μL of the His-CD80 fusion protein and 2.5 μL of the […] fusion protein solution were well mixed and incubated at room temperature for 15 min; then, 5 μL of the anti-His-XL665 antibody and 5 μL of the anti-hFc-Eu^3+antibody were added to the system and further incubated for 3 h before test. • (3) During the test reaction, control groups were set, including a 0% inhibitory positive control without adding the test compound and a 100% inhibitory negative control without adding the CD80 protein. All tests were conducted by use of multiple holes. • (4) The fluorescence detector Tecan (Spark 10M) was used to detect the fluorescence signal of each hole. The excitation wavelength was 320 nm, and the emission wavelengths for detection were 620 nm and 665 nm, respectively. The strength of CD80/PD-L1 binding refers to a fluorescence signal ratio Em665/Em620. • (5) Calculation formula of binding inhibition rate of test compound: Inhibition rate (%)=[1−(fluorescence signal ratio of detected hole−fluorescence signal ratio of 100% inhibition negative control)]/(fluorescence signal ratio of 0% inhibition positive control — fluorescence signal ratio of 100% inhibition negative control)×100%. The 50% inhibition concentration (IC50) was calculated after the CD80/PD-L1 binding inhibition rates of the test compound with different concentration gradients were calculated respectively.

CD80/PD-L1 binding (recombinant human His-CD80 protein and PD-L1-Fc fusion protein), sequence (Q9NZQ7 19-239): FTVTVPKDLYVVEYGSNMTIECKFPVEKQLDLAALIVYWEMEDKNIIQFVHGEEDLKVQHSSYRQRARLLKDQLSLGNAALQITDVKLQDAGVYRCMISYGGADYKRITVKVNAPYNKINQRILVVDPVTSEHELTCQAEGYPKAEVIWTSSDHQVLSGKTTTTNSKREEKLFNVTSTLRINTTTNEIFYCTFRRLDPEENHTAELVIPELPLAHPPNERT

IC50 | SMILES
1.64 nM | COCC12CCC(CCN3CCc4c(nc(C(=O)Nc5cccc(-c6cccc(NC(=O)c7nc8c(n7C)CCN(CC79CCC(C(=O)O)(CC7)C9)C8)c6Cl)c5C)n4C)C3)(CC1)C2 [Compound I-12, 4-((2-((2-chloro-3′-(5-(2-(4-(methoxymethyl)bicyclo[2.2.1]heptan-1-yl)ethyl)-1-methyl-4,5,6,7-tetrahydro-1H-imidazo[4,5-c]pyridine-2-carboxamido)-2′-methyl-[1,1′-biphenyl]-3-yl)carbamoyl)-1-methyl-1,4,6,7-tetrahydro-5H-imidazo[4,5-c]pyridin-5-yl)methyl)bicyclo[2.2.1]heptane-1-carboxylic acid]
0.86 nM | COCC12CCC(CCN3CCc4c(nc(C(=O)Nc5cccc(-c6cccc(NC(=O)c7nc8c(n7C)CCN(CCC79CCC(C(=O)O)(CC7)C9)C8)c6Cl)c5Cl)n4C)C3)(CC1)C2 [Compound I-6, 4-(2-(2-((2,2′-dichloro-3′-(5-(2-(4-(methoxymethyl)bicyclo[2.2.1]heptan-1-yl)ethyl)-1-methyl-4,5,6,7-tetrahydro-1H-imidazo[4,5-c]pyridine-2-carboxamido)-[1, 1′-biphenyl]-3-yl)carbamoyl)-1-methyl-1,4,6,7-tetrahydro-5H-imidazo[4,5-c]pyridin-5-yl)ethyl)bicyclo[2.2.1]heptane-1-carboxylic acid]
0.41 nM | COCC12CCC(CCN3CCc4c(nc(C(=O)Nc5cccc(-c6cccc(NC(=O)c7nc8c(n7C)CCN(CCC79CCC(C(=O)O)(CC7)C9)C8)c6Cl)c5F)n4C)C3)(CC1)C2 [Compound I-9, 4-(2-(2-((2-chloro-2′-fluoro-3′-(5-(2-(4-(methoxymethyl)bicyclo[2.2.1]heptan-1-yl)ethyl)-1-methyl-4,5,6,7-tetrahydro-1H-imidazo [4,5-c]pyridine-2-carboxamido)-[1,1′-biphenyl]-3-yl)carbamoyl)-1-methyl-1,4,6,7-tetrahydro-5H-imidazo[4,5-c]pyridin-5-yl)ethyl)bicyclo[2.2.1]heptane-1-carboxylic acid]
0.33 nM | Cn1c(C(=O)Nc2cccc(-c3cccc(NC(=O)c4nc5c(n4C)CCN(CCC46CCC(C(=O)O)(CC4)C6)C5)c3Cl)c2Cl)nc2c1CCN(CCC13CCC(COC(F)F)(CC1)C3)C2 [Compound I-7, 4-(2-(2-((2,2′-dichloro-3′-(5-(2-(4-((difluoromethoxy)methyl)bicyclo[2.2.1]heptan-1-yl)ethyl)-1-methyl-4,5,6,7-tetrahydro-1H-imidazo[4,5-c]pyridine-2-carboxamido)-[1,1′-biphenyl]-3-yl)carbamoyl)-1-methyl-1,4,6,7-tetrahydro-5H-imidazo[4,5-c]pyridin-5-yl)ethyl)bicyclo[2.2.1]heptane-1-carboxylic acid]
0.96 nM | CCOCC12CCC(CCN3CCc4c(nc(C(=O)Nc5cccc(-c6cccc(NC(=O)c7nc8c(n7C)CCN(CCC79CCC(C(=O)O)(CC7)C9)C8)c6C)c5Cl)n4C)C3)(CC1)C2 [Compound I-3, 4-(2-(2-((2′-chloro-3′-(5-(2-(4-(ethoxymethyl)bicyclo[2.2.1]heptan-1-yl)ethyl)-1-methyl-4,5 ,6,7-tetrahydro-1H-imidazo[4,5-c]pyridine-2-carboxamido)-2-methyl-[1,1′-biphenyl]-3-yl)carbamoyl)-1-methyl-1,4,6,7-tetrahydro-5H-imidazo[4,5-c]pyridin-5-yl)ethyl)bicyclo[2.2.1]heptane-1-carboxylic acid]
1.43 nM | COCC12CCC(CCN3CCc4c(nc(C(=O)Nc5cccc(-c6cccc(NC(=O)c7nc8c(n7C)CCN(CCC79CCC(C(=O)O)(CC7)C9)C8)c6Cl)c5C#N)n4C)C3)(CC1)C2 [Compound I-11, 4-(2-(2-((2-chloro-2′-cyano-3′-(5-(2-(4-(methoxymethyl)bicyclo[2.2.1]heptan-1-yl)ethyl)-1-methyl-4,5,6,7-tetrahydro-1H-imidazo[4,5-c]pyridine-2-carboxamido)-[1,1′-biphenyl]-3-yl)carbamoyl)-1-methyl-1,4,6,7-tetrahydro-5H-imidazo[4,5-c]pyridin-5-yl)ethyl)bicyclo[2.2.1]heptane-1-carboxylic acid]
0.62 nM | Cn1c(C(=O)Nc2cccc(-c3cccc(NC(=O)c4nc5c(n4C)CCN(CCC46CCC(C(=O)O)(CC4)C6)C5)c3Cl)c2F)nc2c1CCN(CCC13CCC(COC(F)F)(CC1)C3)C2 [Compound I-10, 4-(2-(2-((2-chloro-3′-(5-(2-(4-((difluoromethoxy)methyl)bicyclo[2.2.1]heptan-1-yl)ethyl)-1-methyl-4,5,6,7-tetrahydro-1H-imidazo[4,5-c]pyridine-2-carboxamido)-2′-fluoro-[1,1′-biphenyl]-3-yl)carbamoyl)-1-methyl-1,4,6,7-tetrahydro-5H-imidazo[4,5-c]pyridin-5-yl)ethyl)bicyclo[2.2.1]heptane-1-carboxylic acid]
5.53 nM | Cn1c(C(=O)Nc2cccc(-c3cccc(NC(=O)c4nc5c(n4C)CCN(CC46CCC(C(=O)O)(CC4)C6)C5)c3Cl)c2Cl)nc2c1CCN(CCO)C2 [Example 180]
3.4 nM | COCC12CCC(CN3CCc4c(nc(C(=O)Nc5cccc(-c6cccc(NC(=O)c7nc8c(n7C)CCN(CCC79CCC(C(=O)O)(CC7)C9)C8)c6Cl)c5Cl)n4C)C3)(CC1)C2 [Compound I-8, 4-(2-(2-((2,2′-dichloro-3′-(5-((4-(methoxymethyl)bicyclo[2.2.1]heptan-1-yl)methyl)-1-methyl-4,5,6,7-tetrahydro-1H-imidazo[4,5-c]pyridine-2-carboxamido)-[1, 1′-biphenyl]-3-yl)carbamoyl)-1-methyl-1,4,6,7-tetrahydro-5H-imidazo[4,5-c]pyridin-5-yl)ethyl)bicyclo[2.2.1]heptane-1-carboxylic acid]
0.79 nM | COCC12CCC(CCCN3CCc4c(nc(C(=O)Nc5cccc(-c6cccc(NC(=O)c7nc8c(n7C)CCN(CCC79CCC(C(=O)O)(CC7)C9)C8)c6Cl)c5C)n4C)C3)(CC1)C2 [Compound I-2, 4-(2-(2-((2-chloro-3′-(5-(3-(4-(methoxymethyl)bicyclo[2.2.1]heptan-1-yl)propyl)-1-methyl-4,5,6,7-tetrahydro-1H-imidazo[4,5-c]pyridine-2-carboxamido)-2′-methyl-[1,1′-biphenyl]-3-yl)carbamoyl)-1-methyl-1,4,6,7-tetrahydro-5H-imidazo[4,5-c]pyridin-5-yl)ethyl)bicyclo[2.2.1]heptane-1-carboxylic acid]
0.84 nM | COCC12CCC(CCCN3CCc4c(nc(C(=O)Nc5cccc(-c6cccc(NC(=O)c7nc8c(n7C)CCN(CCC79CCC(C(=O)O)(CC7)C9)C8)c6C)c5Cl)n4C)C3)(CC1)C2 [Compound I-1, 4-(2-(2-((2′-chloro-3′-(5-(3-(4-(methoxymethyl)bicyclo[2. 2.1]heptan-1-yl)propyl)-1-methyl-4,5,6,7-tetrahydro-1H-imidazo[4,5-c]pyridine-2-carboxamido) -2-methyl-[1,1′-biphenyl]-3-yl)carbamoyl)-1-methyl-1,4,6,7-tetrahydro-5H-imidazo[4,5-c]pyridin-5-yl)ethyl)bicyclo[2.2.1]heptane-1-carboxylic acid]
2.16 nM | COCC12CCC(CCN3CCc4c(nc(C(=O)Nc5cccc(-c6cccc(NC(=O)c7nc8c(n7C)CCN(CCC79CCC(C(=O)O)(CC7)C9)C8)c6Cl)c5C)n4C)C3)(CC1)C2 [Compound I-5, 4-(2-(2-((2-chloro-3′-(5-(2-(4-(methoxymethyl)bicyclo[2.2.1]heptan-1-yl)ethyl)-1-methyl-4,5,6,7-tetrahydro-1H-imidazo[4,5-c]pyridine-2-carboxamido)-2′-methyl-[1,1′-biphenyl]-3-yl)carbamoyl)-1-methyl-1,4,6,7-tetrahydro-5H-imidazo [4,5-c]pyridin-5-yl)ethyl)bicyclo[2.2.1]heptane-1-carboxylic acid]
